Test results: the supplement of paper PMC10307832

Tests used:
Assay in all cases: relative viability (nuclei count vs DMSO), 5 days (fraction); higher = more cells survive
Adavosertib + Pemetrexed = compound: C=CCn1c(=O)c2cnc(Nc3ccc(N4CCN(C)CC4)cc3)nc2n1-c1cccc(C(C)(C)O)n1 [Adavosertib] + Nc1nc2[nH]cc(CCc3ccc(C(=O)N[C@@H](CCC(=O)O)C(=O)O)cc3)c2c(=O)[nH]1 [Pemetrexed] (partner 0.2 µM)
Method in brief: (§1)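 Relative viability was taken as the ratio of nuclei in treated wells to nuclei in vehicle wells. Lung cancer cell lines in 1536-well plates received compounds by pin tool one day after seeding, either one drug alone or a fixed anchor-drug dose plus five library-drug doses (not always all listed) in √10 steps. Nuclei were counted on 4× images after 5 days of treatment, and values are medians of duplicate plates.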

Nelarabine + Pictilisib = compound: COc1nc(N)nc2c1ncn2[C@@H]1O[C@H](CO)[C@@H](O)[C@@H]1O [Nelarabine] + CS(=O)(=O)N1CCN(Cc2cc3nc(-c4cccc5[nH]ncc45)nc(N4CCOCC4)c3s2)CC1 [Pictilisib] (partner 1 µM)
Method in brief: as §1

Nelarabine + Vorinostat = compound: COc1nc(N)nc2c1ncn2[C@@H]1O[C@H](CO)[C@@H](O)[C@@H]1O [Nelarabine] + O=C(CCCCCCC(=O)Nc1ccccc1)NO [Vorinostat] (partner 1 µM)
Method in brief: as §1

Adavosertib + Olaparib = compound: C=CCn1c(=O)c2cnc(Nc3ccc(N4CCN(C)CC4)cc3)nc2n1-c1cccc(C(C)(C)O)n1 [Adavosertib] + O=C(c1cc(Cc2n[nH]c(=O)c3ccccc23)ccc1F)N1CCN(C(=O)C2CC2)CC1 [Olaparib] (partner 8 µM)
Method in brief: as §1

Cell Line | relative viability (Adavosertib + Pemetrexed; first compound 0.01 µM) | relative viability (Adavosertib + Pemetrexed; first compound 0.03162 µM) | relative viability (Adavosertib + Pemetrexed; first compound 0.1 µM) | relative viability (Adavosertib + Pemetrexed; first compound 0.3162 µM) | relative viability (Nelarabine + Pictilisib; first compound 0.01 µM) | relative viability (Nelarabine + Pictilisib; first compound 0.03162 µM) | relative viability (Nelarabine + Pictilisib; first compound 0.1 µM) | relative viability (Nelarabine + Pictilisib; first compound 0.3162 µM) | relative viability (Nelarabine + Pictilisib; first compound 1 µM) | relative viability (Nelarabine + Vorinostat; first compound 0.01 µM) | relative viability (Nelarabine + Vorinostat; first compound 0.03162 µM) | relative viability (Nelarabine + Vorinostat; first compound 0.1 µM) | relative viability (Nelarabine + Vorinostat; first compound 0.3162 µM) | relative viability (Nelarabine + Vorinostat; first compound 1 µM) | relative viability (Adavosertib + Olaparib; first compound 0.01 µM) | relative viability (Adavosertib + Olaparib; first compound 0.03162 µM) | relative viability (Adavosertib + Olaparib; first compound 0.1 µM) | relative viability (Adavosertib + Olaparib; first compound 0.3162 µM)
NCI-H596 | 0.497 | 0.515 | 0.471 | 0.423 | 0.402 | 0.445 | 0.399 | 0.376 | 0.446 | 0.546 | 0.608 | 0.613 | 0.671 | 0.661 | 0.736 | 0.791 | 0.52 | 0.591
NCI-H1944 | 0.621 | 0.582 | 0.428 | 0.27 | 0.369 | 0.322 | 0.339 | 0.399 | 0.366 | 0.669 | 0.549 | 0.54 | 0.559 | 0.538 | 0.41 | 0.384 | 0.393 | 0.403
